In general, MIC refers to the lowest concentration that inhibits growth of the organism.

SMILES strings stand for the structures. “And” between values parts separate entries of the source, which are not always exact repeats. Identical values can stand only once. Like-named read-outs stand apart in the source and are kept apart here.

Assay type in all cases: cell-based
One data set concerns erythrocyte. The settings on record: 37° C., 1 h. The procedure: Human blood was collected in 10 mL Vacutainer tubes containing potassium-EDTA as anticoagulant. The blood from each vacutainer was transferred to a 50 mL centrifuge tube and the cells washed three times with calcium- and magnesium-free phosphate buffered saline (PBS) (Gibco) by centrifugation at 2000×g for 15 min. The third supernatant was clear and colourless. Cells were stored in PBS for up to two weeks. The cell suspension in PBS (0.5 mL) was mixed with a stock solution of test substance (0.5 mL) at the appropriate concentration (final erythrocyte concentration of approx. 0.5×10^9 per mL). The mixtures were incubated at 37° C. for 1 h with gentle shaking, then centrifuged at 2000×g for 10 min. The supernatant was diluted 10-fold with PBS and the optical density measured at 540 nm. The values for 0% and 100% lysis were determined by incubating cells with PBS or 0.1% Triton X-100 (in water), respectively. Assays were carried out in triplicate.

Another data set concerns M. canis. Briefly: Susceptibility of dermatophytes, broth microdilution NCCLS M38-P. The note with it: for MIC: Microsporum canis. Here is the method: (§1) Isolates were tested using the method described in the National Committee for Clinical Laboratory Standards (NCCLS) document M38-P for filamentous fungi, with dermatophyte specific modifications described by Fernández-Torres et al, Current topics in Medical Mycology, 14-19 Feb. 1999.
(§2) Five dermatophyte isolates were, namely; T. rubrum, T. mentagrophytes, T. tonsurans, M. canis and M. gypseum, all of which produce lipases and some, phospholipase. These isolates were tested by the broth microdilution method according to NCCLS document M38-P, for activity against selected antifungal agents. In addition, ten randomly selected isolates of T. tonsurans were also tested. All isolates were maintained on SDA at 28° C. Candida parapsilosis (ATCC 20019) was used as the reference control is organism.
(§3) The microdilution plates used were a single lot of RPMI 1640 basal medium (JRH bioScience Inc. Lenexa, Kans., USA) with L-glutamine and without sodium bicarbonate, buffered to pH 7.0, at 25° C., with 0.165 M (MOPS) morpholinepropanesulfonic acid (Sigma).
(§4) Powdered drugs were dissolved in 100% dimethyl sulfoxide (DMSO), at concentrations 100 times higher than the final test concentration. All compounds were prepared in 100% (DMSO). For ITRA and TRB, two-fold drug dilutions were prepared in 100% DMSO at 100 times the final concentration, followed by further dilution 1:50 in RPMI medium, to yield 2× the final strength required for the test.
(§5) Fungal cultures were subcultured onto Potato Dextrose Agar and grown at 28° C. for 7-10 days. Fungal suspensions were covered with 5 ml of distilled water, and then colonies were scraped off with cotton tipped swabs. The resulting mixture of conidia and hyphae elements was withdrawn, transferred to a sterile tube and then vortexed with glass beads. After the particles settled, the upper homogeneous suspension was collected and its density adjusted by a densitometer to a 0.5 McFarland standard at the wavelength of 530 nm (80-85% transmittance). These stock suspensions were then diluted 1:50 with RPMI medium to obtain final working inoculum concentration ranging from 0.3×10^4 to 9×10^4 CFU/ml. Inoculum quantification was performed by plating 100 μl of the 1:1000 dilution of the adjusted inoculum on SDA plates, incubated at 28° C., and after 7 days of incubation, the colonies were counted.
(§6) Testing was based on NCCLS M38-P document for testing filamentous moulds. Testing was carried out in sterile 96-well flat bottomed microtitre plate. Columns 1 and 3 to 12 were filled with 100 μl of RPMI medium, leaving column 2 unfilled. Columns 1, 2 and 3 were filled with 100 μl of 2× drug concentration. Serial dilutions were then made by transferring 100 μl from column 3 to each column up to column 11, and 100 μl from column 11 was discarded. Column 12 served as drug free growth control. Finally, 100 μl of inoculum suspension was added to all wells except column 1, which acted as sterility control (Columns 1 and 12 served as sterility and growth control respectively). Plates were incubated at 28° C. for 7 days, and read at 3 days and 7 days of incubation. All testing was performed in duplicate, on three separate occasions.
(§7) Growth in microtitre trays were read by visual inspection by using an illuminated-reversed mirror. Growth in each well was compared with the “growth control” drug free well. The MIC end point for all the drugs was chosen to be the first well with 100% growth inhibition (i.e. the lowest drug concentration inhibiting growth).

Another data set deals with M. gypseum. The data set is described as above. The note with it: for MIC: Nannizzia gypsea. Here is the method: as §1, §2, §3, §4, §5, §6, §7
For the next data set, the system named is T. rubrum. The data set is described as above. The note with it: for MIC: Trichophyton rubrum. The procedure:
as §1, §2, §3, §4, §5, §6, §7

The subject of another data set is T. tonsurans. Described as above. The note with it: for MIC: Trichophyton tonsurans. Here is the method: as §1, §2, §3, §4, §5, §6, §7
Data set [1] has as its system ten randomly selected isolates of T. tonsurans. Briefly: Susceptibility of ten T. tonsurans isolates, broth microdilution NCCLS M38-P. The settings on record: for MIC: Trichophyton tonsurans. Here is the method:
as §1, §2, §3, §4, §5, §6, §7
For orientation: In broth dilution the organism is exposed to a series of concentrations in liquid medium.

Take `CCCC[N+](CCCC)(CCCC)CCCCCCCCCCCC[N+](CCCC)(CCCC)CCCC` [1,12-Bis-(tributylammonium)dodecane dichloride]: the “Haemolytic assay (%)” value came to 0% in the data set with erythrocyte (3.5 μM); 0% in the data set on erythrocyte (35 μM); 0% with erythrocyte (88 μM); 5% in the data set on erythrocyte (175 μM); 100% in the data set with erythrocyte (350 μM). For the same compound, the MIC with M. canis (Table 9, read-out: MIC M. canis) was 5.7 µg/mL and 9.4 µM; with M. gypseum (Table 9, read-out: MIC M. gypseum), 3.8 µg/mL and 6.3 µM; in the data set on T. rubrum (Table 9, read-out: MIC T. rubrum), 5.7 µg/mL and 9.4 µM; with T. tonsurans (Table 9, read-out: MIC T. tonsurans) it was 3.8 µg/mL and 6.2 µM.
Turning to `CCCC[P+](CCCC)(CCCC)CCCCCCCCCCCC[P+](CCCC)(CCCC)CCCC` [Compound 1, 1,12-bis(tributylphosphonium)dodecane dibromide], the “Haemolytic assay (%)” value in the data set on erythrocyte (3.5 μM) is 0%; with erythrocyte (35 μM), 0%; in the data set with erythrocyte (88 μM), 0%; with erythrocyte (175 μM) it was 0%; in the data set with erythrocyte (350 μM), 0%; in the data set on erythrocyte (700 μM) it was 75%.
Regarding `CCCC[N+](CCCC)(CCCC)CCCCCCCCCCCC[N+](CCCC)(CCCC)CCCC` [Compound 3, 1,12-bis(tributylammonium)do-decane dibromide], the “MIC Range, M. canis” value in the data set on M. canis (100% growth inhibition, 28° C.) lay in the range of 3.8 to 7.6 µg/mL. In addition, the MIC with M. canis (100% growth inhibition, 28° C., read-out: MIC GM, M. canis) was 6.03 µg/mL; with M. canis (100% growth inhibition, 28° C., read-out: MIC Mean, M. canis) it was 6.33 µg/mL; in the data set on M. gypseum (100% growth inhibition, 28° C., read-out: MIC GM, M. gypseum), 3.8 µg/mL; with M. gypseum (100% growth inhibition, 28° C., read-out: MIC Mean, M. gypseum) it was 4.75 µg/mL; in the data set with T. rubrum (100% growth inhibition, 28° C., read-out: MIC GM, T. rubrum) it was 5.37 µg/mL; in the data set with T. rubrum (100% growth inhibition, 28° C., read-out: MIC Mean, T. rubrum) it was 5.7 µg/mL. The MIC was determined as 3.38 µg/mL in the data set on T. tonsurans (100% growth inhibition, 28° C., read-out: MIC GM, T. tonsurans); 3.8 µg/mL with T. tonsurans (100% growth inhibition, 28° C., read-out: MIC Mean, T. tonsurans); 3.02 µg/mL in data set [1] (T. tonsurans 1, read-out: MIC GM); 1.15 µg/mL in data set [1] (T. tonsurans 2, read-out: MIC GM); 2.83 µg/mL in data set [1] (T. tonsurans 2, read-out: MIC Mean); 1.87 µg/mL in data set [1] (T. tonsurans 4, read-out: MIC GM). Besides, the MIC in data set [1] (T. tonsurans 4, read-out: MIC Mean) was determined as 2.68 µg/mL; in data set [1] (T. tonsurans 5, read-out: MIC GM) it was 2.96 µg/mL; in data set [1] (T. tonsurans 5, read-out: MIC Mean) it was 5.22 µg/mL; in data set [1] (T. tonsurans 6, read-out: MIC GM) it was 4.32 µg/mL; in data set [1] (T. tonsurans 6, read-out: MIC Mean), 6.94 µg/mL; in data set [1] (T. tonsurans 7, read-out: MIC GM), 1.87 µg/mL. In addition, the MIC was 2.68 µg/mL in data set [1] (T. tonsurans 7, read-out: MIC Mean); 2.48 µg/mL in data set [1] (T. tonsurans 8, read-out: MIC GM); 3.13 µg/mL in data set [1] (T. tonsurans 8, read-out: MIC Mean); 6.04 µg/mL in data set [1] (T. tonsurans 9, read-out: MIC GM); 7.61 µg/mL in data set [1] (T. tonsurans 9, read-out: MIC Mean); 4.52 µg/mL in data set [1] (T. tonsurans 10, read-out: MIC GM). Besides, the MIC in data set [1] (T. tonsurans 10, read-out: MIC Mean) amounted to 4.75 µg/mL; in data set [1] (T.tonsurans 3, read-out: MIC GM), 1.87 µg/mL; in data set [1] (T.tonsurans 3, read-out: MIC Mean), 2.68 µg/mL; in data set [1] (read-out: MIC Mean, T. tonsurans 1), 3.17 µg/mL. The “MIC Range, M. gypseum” value with M. gypseum (100% growth inhibition, 28° C.) is 1.9 to 7.6 µg/mL. Besides, the “MIC Range, T. rubrum” value in the data set with T. rubrum (100% growth inhibition, 28° C.) was 3.8 to 7.6 µg/mL. Also, the “MIC Range, T. tonsurans” value in the data set with T. tonsurans (100% growth inhibition, 28° C.) was in the range of 1.9 to 7.6 µg/mL. For the same compound, the “MIC Range” value is 1.9 to 3.8 µg/mL in data set [1] (T. tonsurans 1); 0.45 to 7.6 µg/mL in data set [1] (T. tonsurans 2); 0.45 to 3.8 µg/mL in data set [1] (T. tonsurans 4); 0.45 to 7.6 µg/mL in data set [1] (T. tonsurans 5); 0.45 to 15.25 µg/mL in data set [1] (T. tonsurans 6); 0.45 to 3.8 µg/mL in data set [1] (T. tonsurans 7). The “MIC Range” value was in the range of 0.45 to 3.8 µg/mL in data set [1] (T. tonsurans 8), 3.8 to 15.25 µg/mL in data set [1] (T. tonsurans 9), 3.8 to 7.6 µg/mL in data set [1] (T. tonsurans 10) and 0.45 to 3.8 µg/mL in data set [1] (T.tonsurans 3).

Source of the values: US7947854B2, “Bis-cationic compounds and use thereof” (The University of Sydney, priority 2003, dated 2011).
